Data published in patent US10494610B2, “Three dimensional matrix for cancer stem cells” (UNIVERSITY OF SOUTH CAROLINA, priority 2013, dated 2019).
Entries after “also recorded” stand apart in the source; their conditions may differ. No end group written: not given here.

What was measured:
4T1 cells [1] = test: RT-qPCR mRNA expression of CSC related markers in encapsulated cells; format: cell-based, mouse; conditions: for CD44 mRNA marker expression / ABCG2 mRNA marker expression / CD24 mRNA marker expression / SCA1 mRNA marker expression: 4T1 in PEGDA gel with peptide; for EGFR mRNA marker expression: 4T1 in peptide-conjugated gels
Description: Total cellular RNA of the gel samples was isolated using TRIzol (Invitrogen). 250 ng of the extracted purified RNA was reverse transcribed to cDNA by SuperScript II Reverse Transcriptase (Invitrogen) with the random primers. The obtained cDNA was subjected to real time quantitative polymerase chain reaction (RT-qPCR) amplification with appropriate gene specific primers. RT-qPCR was performed to analyze the differential expression of CSC markers CD44 (4T1 and MCF7), CD24 (4T1), ABCG2 (4T1 and MCF7), and SCA1 (4T1) genes with SYBR green RealMasterMix (Eppendorf, Hamburg, Germany) using Bio-Rad iCycler PCR system (Bio-Rad, Hercules, Calif.). The expression level of GAPDH gene was used as an internal control. The primers for real time PCR were designed by Primer 3 software. The following forward and reverse primers synthesized by Integrated DNA technologies (Coralville, Iowa) were used: mouse GAPDH: forward 5′-CATGGCCTTCCGTGTTCCTA-3′ (SEQ ID NO: 1) and reverse 5′-CCTGCTTCACCACCTTCTTGA-3′ (SEQ ID NO: 2); mouse CD44: forward 5′-GAATGTAACCTGCCGCTACG-3′ (SEQ ID NO: 3) and reverse 5′-GGA GGT GTT GGA CGT GAC-3′ (SEQ ID NO: 4); mouse CD24: forward 5′-CTTCTGGCACTGCTCCTACC-3′ (SEQ ID NO: 5) and reverse 5′-GAGAGAGAGCCAGGAGACCA-3′ (SEQ ID NO: 6); mouse ABCG2: forward 5′-AGCAGCAAGGAAAGATCCAA-3′ (SEQ ID NO: 7) and reverse 5′-GGAATACCGAGGCTGATGAA-3′ (SEQ ID NO: 8); mouse SCA1: forward 5′-TGG ACA CTT CTC ACA CTA-3′ (SEQ ID NO: 9) and reverse 5′-CAGAGCAAGAGGGTCTGCAGGAG-3′ (SEQ ID NO: 10); human GAPDH forward 5′-GAGTCAACGGATTTGGTCGT-3′ (SEQ ID NO: 11) and reverse 5′-TTGATTTTGGAGGGATCTCG-3′ (SEQ ID NO: 12); human CD44 forward 5′-GGCTTTCAATAGCACCTTGC-3′ (SEQ ID NO: 13) and reverse 5′-ACACCCCTGTGTTGTTTGCT-3′ (SEQ ID NO: 14); human ABCG2 forward 5′-CACCTTATTGGCCTCAGGAA-3′ (SEQ ID NO: 15) and reverse 5′-CCTGCTTGGAAGGCTCTATG-3′ (SEQ ID NO: 16). The relative gene expression levels were quantified by the 2^-ddCT method as described. The relative gene expressions were expressed as fold difference compared with that at time zero.
Total cellular RNA of the gel samples was isolated using TRIzol (Invitrogen). 250 ng of the extracted purified RNA was reverse transcribed to cDNA by SuperScript II Reverse Transcriptase (Invitrogen) with the random primers. The obtained cDNA was subjected to real time quantitative polymerase chain reaction (RT-qPCR) amplification with the appropriate gene specific primers. RT-qPCR was performed to analyze the differential expression of CSC markers CD44, CD24, ABCG2, and SCA1 genes with SYBR green RealMasterMix (Eppendorf, Hamburg, Germany) using Bio-Rad iCycler PCR system (Bio-Rad, Hercules, Calif.). The expression level of GAPDH gene was used as an internal control. The primers for real time PCR were designed by Primer 3 software. The forward and reverse primer sequences, listed in the table below, were synthesized by Integrated DNA technologies (Coralville, Iowa). The relative gene expression levels were quantified by the 2^(−ΔΔCT) method. Briefly, ΔCT was calculated as ΔCT=CT^target gene−CT^GAPDH. ΔΔCT of the target gene was calculated as ΔΔCT=ΔCT^experimental group−ΔCT^reference group. The reference was the first time point (right after cells were encapsulated in the gel). The relative gene expression (fold-change compared to the reference time point) was calculated as 2^(−ΔΔCT).

4T1 cells [2] = test: Flow cytometry of CD44+/CD24- cells isolated from the gel; format: cell-based, mouse; conditions: 4T1, 9 days after encapsulation in 5 kPa gel with or without conjugated peptide (about 6% without gel)
Description: Cells encapsulated in the gel were fixed with 4% paraformaldehyde for 30 min followed by washing with PBS. Next, the gel was incubated in oxidative degradation solution (0.1M CoCl in 20% hydrogen peroxide). After the gel was degraded, cells were washed three times with cold PBS containing 5% BSA. MCF7 cells were incubated with phycoerythrin (PE) mouse anti-human CD24 and fluorescein isothiocyanate (FITC) mouse anti-human CD44 (BD Biosciences, Franklin Lakes, N.J.), and 4T1 cells were incubated with PE-anti-mouse CD24 and FITC-anti-mouse CD44 (eBioscience, San Diego, Calif.) in 100 μl PBS with 5% BSA for 45 min on ice in the dark. Cells were then washed with cold PBS with 5% BSA three times and analyzed by a flow cytometer (FC500, Beckman Coulter, Brea, Calif.). Flow cytometry was done multiple times on each sample to ascertain reproducibility of the results.

[3] = test system: 4T1 mouse breast carcinoma cells; test: Tumorsphere formation, size and cell number of cells encapsulated in the gel; format: cell-based; conditions: 9 days; for tumorsphere formation: 4T1 in 5 kPa PEGDA gel with peptide conjugated (conj) or dissolved (dis); for cell number density compared with the gel without peptide: 4T1 in PEGDA gel with peptide conjugated (conj) or dissolved (dis)
Description: 4T1 and MCF7 tumor cells were cultured in RMPI-1640 medium with 10% FBS under 5% CO2 at 37° C. Cells were trypsinized after reaching 70% confluency. PEGDA macromer was dissolved in PBS and sterilized by filtration with a 0.2 μm filter. Next, 1.4×10^5/mL 4T1 or MCF7 cells suspended in PBS were added to the macromer solution with final PEGDA concentrations ranging 5-25 wt % and mixed gently with a pre-sterilized glass rod. The cell-suspended hydrogel precursor solution was crosslinked with UV for 10 min. After crosslinking, the gel was cut into disks and incubated in stem cell culture medium in ultra-low attachment tissue culture plates under 5% CO2. The stem cell medium consisted of DMEM-F12 supplemented with 0.4% bovine serum albumin (BSA), 5 μg/mL insulin, 40 ng/mL basic fibroblast growth factor (bFGF), 20 ng/mL EGF, 5% horse serum, 100 U/mL penicillin, and 100 μg/mL streptomycin.
To determine cell viability, gels were stained with cAM/EthD live/dead dyes 2 days after encapsulation to image live and dead cells, respectively. Stained samples were imaged with an inverted fluorescent microscope (Nikon Eclipse Ti-ε, Nikon, Melville, N.Y.). Cell viability was quantified by dividing the image into smaller squares and counting the number of live and dead cells. At each time point, the gel samples were removed from the culture media and stained for imaging. Samples were rinsed twice with PBS and fixed with 4% paraformaldehyde for 3 h. After fixation, cells were permeabilized using PBS containing 0.1% Triton X-100 for 5 min. After rinsing, cells were incubated with Alexa 488 phalloidin (1:200 dilution) and DAPI (1:5000 dilution) to stain actin filaments of the cell cytoskeleton and cell nuclei, respectively. Stained samples were imaged with a Nikon Eclipse Ti-ε inverted fluorescent microscope. For visualization of cell uniformity, a confocal fluorescent microscope (Zeiss LSM-510 META Axiovert, Carl Zeiss, Germany) was used to obtain 2D images (90 μm thick layers) of the stained gels in the direction of thickness. For determination of cell number, the gel samples were homogenized, cells were lysed, and aliquots were used to measure the double stranded DNA (dsDNA) content using a Quant-it PicoGreen assay. Briefly, an aliquot (100 μL) of the working solution was added to 100 μL of the cell lysate and incubated for 4 min at ambient conditions. The fluorescence of the solution was measured with a plate reader (Synergy HT, Bio-Tek, Winooski, Vt.) at emission and excitation wavelength of […], respectively. Measured fluorescent intensities were correlated to cell numbers using a calibration curve constructed with 4T1 or MCF7 cells of known concentration ranging from zero to […].
The tumor cells were cultured in RMPI-1640 medium with 10% FBS under 5% CO2 at 37° C. Cells were trypsinized after reaching 70% confluency. The synthesized acrylamide-terminated peptides were added to the PEGDA macromer solution and the mixture was sterilized by filtration (220 nm filter). Next, 1.4×10^5/ml cells (4T1, MCF7, or MCF10a) were added to the macromer solution and mixed gently with a pre-sterilized glass rod. The cell-suspended hydrogel precursor solution was crosslinked with UV for 10 min as described above. After cross-linking, the gel was cut into disks and incubated in stem cell culture medium on ultra-low attachment tissue culture plates under 5% CO2. The stem cell medium consisted of DMEM-F12 supplemented with 0.4% BSA, 5 μg/ml insulin, 40 ng/ml bFGF, 20 ng/ml EGF, 5% horse serum, 100 U/ml penicillin, and 100 μg/ml streptomycin. For growing tumorspheres in suspension, trypsinized cells (4T1 or MCF7) were cultured on ultra-low attachment tissue culture plates with stem cell culture medium under 5% CO2 at 37° C.
To determine cell viability, gels were stained with cAM and EthD dyes after cell encapsulation to image live and dead cells, respectively. […]

4T1 cells [4] = test: Tumor growth in vivo of cell encapsulated gels implanted subcutaneously; set-up: species or system syngeneic Balb/C mice; conditions: 4T1 cells in dPEGDA gel, subcutaneous, 4 weeks after inoculation
Description: To test tumor formation ability of 4T1 cells in the hydrogel, the cell encapsulated gels were cultured in vitro in the stem cell medium for 9 days as described above. After tumorsphere formation, gel pieces containing 1×10^5 tumorsphere cells were implanted subcutaneously in syngeneic Balb/C mice (6 mice/group). Groups included 4T1 tumorsphere cells, grown on ultra-low attachment plates, and injected subcutaneously (control group), degradable version of the PEGDA gel (dPEGDA) without tumor cells (control group), 4T1 cells encapsulated in the dPEGDA and cultured in vitro for 9 days prior to implantation, and 4T1 cells encapsulated in CD44BP-conjugated dPEGDA gel and cultured in vitro for 9 days prior to implantation. When tumors became measurable, tumor size and growth rate were measured and calculated. Mice were euthanized when tumor volume reached above 1000 mm^3 or 4 weeks after inoculation.

[5] = 4T1 in peptide-conjugated gel, 9 days
[6] = 4T1 in peptide-conjugated gel, 3 days

Row | Substance | CD44 mRNA marker expression (4T1 cells [1]; 9 days) | expression of integrin αV (4T1 cells [1]; 4T1 in peptide-conjugated gel) | expression of integrin β3 (4T1 cells [1]; 4T1 in peptide-conjugated gel) | expression of E-Cadherin (4T1 cells [1]; [5]) | EGFR mRNA marker expression (4T1 cells [1]; 9 days) | percentage of CD44+/CD24− cells (4T1 cells [2]) | tumorsphere formation [3] | cell number density compared with the gel without peptide [3] | ABCG2 mRNA marker expression (4T1 cells [1]; 9 days) | CD24 mRNA marker expression (4T1 cells [1]; 9 days) | SCA1 mRNA marker expression (4T1 cells [1]; 9 days) | CD44 mRNA marker expression (4T1 cells [1]; 9 days, listed as CD44BP) | tumorsphere formation ([3]; listed as CD44BP) | cell number density compared with the gel without peptide ([3]; listed as CD44BP) | tumor formation in vivo (4T1 cells [4]) | tumor formation in vivo (4T1 cells [4]; listed as CD44BP) | expression of E-Cadherin (4T1 cells [1]; [6]) | expression of N-Cadherin (4T1 cells [1]; [6]) | size of cell aggregates / spheres ([3]; 4T1 in peptide-conjugated gels)
1 | GRGDS [IBP] | decreased | significantly increased | significantly increased | low expressions | decreased | 5.4% | completely abolished | reduced cell number | – | – | – | – | – | – | – | – | – | – | –
2 | RLVSYNGIIFFLK [conj CD44BP] (RLVSYNGIIFFLK-NH2; also: conjugated to PEGDA gel, site not given here) | decreased expressions | reduced | reduced | low expressions | decreased | 6.5% | completely abolished sphere formation | strongest effect on cell density | decreased expressions | increased expression | decreased expressions | decreased | inhibits tumorsphere formation; also recorded: completely abolished | reduced cell number | did not form a visible tumor | Tumor growth was not observed | – | – | –
3 | RLVSYNGIIFFLK [dis CD44BP, CD44BP dissolved in the gel and in the culture medium] | high expressions | – | – | – | – | – | did not inhibit sphere formation | lower | high expressions | low expression | high expressions | – | – | – | – | – | – | – | –
4 | VLFGFLKIYSRIN [conj s-CD44BP, reference compound] | high expressions | – | – | – | – | – | no significant effect | lower | high expressions | low expression | high expressions | – | – | – | – | – | – | – | –
5 | WQPPRARI [FHBP] | significantly higher | reduced | reduced | much higher than that in other groups | increased | about 21% | increased; also recorded: enhanced | higher cell number | – | – | – | – | – | – | – | – | decreased | increased | larger spheres
